Source: ChEMBL document CHEMBL5625252, “Synthesis of peptidomimetics as antibiotic adjuvants for combination with aztreonam to combat MDR Pseudomonas aeruginosa” (Eur J Med Chem, 2023)
≈ marks a conversion by molar mass, not a printed value. Where a SMILES comes first, the peptide text is derived from it. The star is where a group is joined. βNA = c1ccc2cc(N*)ccc2c1

Assays:
Pseudomonas aeruginosa [1] = assay: Antibacterial activity against Pseudomonas aeruginosa 16-11 in CAMH broth medium supplemented with 0.41 to 0.51 mM Mg2+ by checkerboard assay; format: functional
[2] = Cytotoxicity against HEK293 cells incubated for 24 hrs by MTT assay; format: toxicity, cell-based; details: human
Pseudomonas aeruginosa [3] = assay: Synergistic antibacterial activity against Pseudomonas aeruginosa PAO1 assessed as aztreonam MIC at 64 ug/ml incubated for 18 hrs by checkerboard method (reference value: 8 microg/ml); format: functional; details: dose 64 µg/ml
Pseudomonas aeruginosa [4] = assay: Antibacterial activity against Pseudomonas aeruginosa 21-8 assessed as inhibition of bacterial growth incubated for 18 hrs by agar dilution method; format: functional
Pseudomonas aeruginosa [5] = assay: Antibacterial activity against Pseudomonas aeruginosa 23-Y417 assessed as inhibition of bacterial growth incubated for 18 hrs by agar dilution method; format: functional
Pseudomonas aeruginosa [6] = assay: Antibacterial activity against Pseudomonas aeruginosa 21-2 assessed as inhibition of bacterial growth incubated for 18 hrs by agar dilution method; format: functional
Pseudomonas aeruginosa [7] = assay: Antibacterial activity against Pseudomonas aeruginosa 23-Y364 assessed as inhibition of bacterial growth incubated for 18 hrs by agar dilution method; format: functional
Pseudomonas aeruginosa [8] = assay: Synergistic antibacterial activity against Pseudomonas aeruginosa 12-1 assessed as aztreonam MIC at 128 ug/ml incubated for 18 hrs by checkerboard method; format: functional; details: dose 128 µg/ml
Pseudomonas aeruginosa [9] = assay: Synergistic antibacterial activity against Pseudomonas aeruginosa PAO1 assessed as fractional inhibitory concentration index at 128 ug/ml incubated for 18 hrs in presence of aztreonam by checkerboard method; format: functional; details: dose 128 µg/ml
Pseudomonas aeruginosa [10] = assay: Synergistic antibacterial activity against Pseudomonas aeruginosa 21-8 assessed as fractional inhibitory concentration index at 128 ug/ml incubated for 18 hrs in presence of aztreonam by checkerboard method; format: functional; details: dose 128 µg/ml
Pseudomonas aeruginosa [11] = assay: Synergistic antibacterial activity against Pseudomonas aeruginosa 13-35 assessed as fractional inhibitory concentration index at 128 ug/ml incubated for 18 hrs in presence of aztreonam by checkerboard method; format: functional; details: dose 128 µg/ml
Pseudomonas aeruginosa [12] = assay: Synergistic antibacterial activity against Pseudomonas aeruginosa 23-Y417 assessed as fractional inhibitory concentration index at 128 ug/ml incubated for 18 hrs in presence of aztreonam by checkerboard method; format: functional; details: dose 128 µg/ml
Pseudomonas aeruginosa [13] = assay: Synergistic antibacterial activity against Pseudomonas aeruginosa 13-3 assessed as fractional inhibitory concentration index at 128 ug/ml incubated for 18 hrs in presence of aztreonam by checkerboard method; format: functional; details: dose 128 µg/ml
Pseudomonas aeruginosa [14] = assay: Synergistic antibacterial activity against Pseudomonas aeruginosa 13-17 assessed as fractional inhibitory concentration index at 128 ug/ml incubated for 18 hrs in presence of aztreonam by checkerboard method; format: functional; details: dose 128 µg/ml
Pseudomonas aeruginosa [15] = assay: Synergistic antibacterial activity against Pseudomonas aeruginosa 19-46 assessed as fractional inhibitory concentration index at 128 ug/ml incubated for 18 hrs in presence of aztreonam by checkerboard method; format: functional; details: dose 128 µg/ml
Pseudomonas aeruginosa [16] = assay: Synergistic antibacterial activity against Pseudomonas aeruginosa 19-55 assessed as fractional inhibitory concentration index at 128 ug/ml incubated for 18 hrs in presence of aztreonam by checkerboard method; format: functional; details: dose 128 µg/ml
Pseudomonas aeruginosa [17] = assay: Synergistic antibacterial activity against Pseudomonas aeruginosa 21-7 assessed as fractional inhibitory concentration index at 128 ug/ml incubated for 18 hrs in presence of aztreonam by checkerboard method; format: functional; details: dose 128 µg/ml
Pseudomonas aeruginosa [18] = assay: Antibacterial activity against Pseudomonas aeruginosa PAO1 assessed as fractional inhibitory concentration index upto 128 ug/ml incubated for 18 hrs in presence of aztreonam by checkerboard method; format: functional; details: dose <= 128 µg/ml
Pseudomonas aeruginosa [19] = assay: Antibacterial activity against Pseudomonas aeruginosa PAO1 in CAMH broth medium supplemented with 0.41 to 0.51 mM Mg2+ by checkerboard assay; format: functional
Pseudomonas aeruginosa [20] = assay: Antibacterial activity against Pseudomonas aeruginosa PAO1 in CAMH broth medium supplemented with 20.99 to 21.09 mM Mg2+ by checkerboard assay; format: functional
Pseudomonas aeruginosa [21] = assay: Antibacterial activity against Pseudomonas aeruginosa 16-11 in CAMH broth medium supplemented with 20.99 to 21.09 mM Mg2+ by checkerboard assay; format: functional
Pseudomonas aeruginosa [22] = assay: Antibacterial activity against Pseudomonas aeruginosa 13-35 in CAMH broth medium supplemented with 20.99 to 21.09 mM Mg2+ by checkerboard assay; format: functional
Pseudomonas aeruginosa [23] = assay: Antibacterial activity against Pseudomonas aeruginosa 12-1 in CAMH broth medium supplemented with 20.99 to 21.09 mM Mg2+ by checkerboard assay; format: functional
Pseudomonas aeruginosa [24] = assay: Synergistic antibacterial activity against Pseudomonas aeruginosa PAO1 in CAMH broth medium supplemented with 0.41 to 0.51 mM Mg2+ in presence of aztreonam by checkerboard assay; format: functional
Pseudomonas aeruginosa [25] = assay: Synergistic antibacterial activity against Pseudomonas aeruginosa 16-11 in CAMH broth medium supplemented with 0.41 to 0.51 mM Mg2+ in presence of aztreonam by checkerboard assay; format: functional
Pseudomonas aeruginosa [26] = assay: Synergistic antibacterial activity against Pseudomonas aeruginosa 12-1 in CAMH broth medium supplemented with 0.41 to 0.51 mM Mg2+ in presence of aztreonam by checkerboard assay; format: functional
Pseudomonas aeruginosa [27] = assay: Synergistic antibacterial activity against Pseudomonas aeruginosa PAO1 in CAMH broth medium supplemented with 20.99 to 21.09 mM Mg2+ in presence of aztreonam by checkerboard assay; format: functional
Pseudomonas aeruginosa [28] = assay: Synergistic antibacterial activity against Pseudomonas aeruginosa 16-11 in CAMH broth medium supplemented with 20.99 to 21.09 mM Mg2+ in presence of aztreonam by checkerboard assay; format: functional
Pseudomonas aeruginosa [29] = assay: Synergistic antibacterial activity against Pseudomonas aeruginosa 13-35 in CAMH broth medium supplemented with 20.99 to 21.09 mM Mg2+ in presence of aztreonam by checkerboard assay; format: functional
Pseudomonas aeruginosa [30] = assay: Synergistic antibacterial activity against Pseudomonas aeruginosa 12-1 in CAMH broth medium supplemented with 20.99 to 21.09 mM Mg2+ in presence of aztreonam by checkerboard assay; format: functional
Pseudomonas aeruginosa [31] = assay: Synergistic antibacterial activity against Pseudomonas aeruginosa 16-11 assessed as fractional inhibitory concentration index in CAMH broth medium supplemented with 0.41 to 0.51 mM Mg2+ in presence of aztreonam by checkerboard assay; format: functional
Pseudomonas aeruginosa [32] = assay: Synergistic antibacterial activity against Pseudomonas aeruginosa 13-35 assessed as fractional inhibitory concentration index in CAMH broth medium supplemented with 0.41 to 0.51 mM Mg2+ in presence of aztreonam by checkerboard assay; format: functional
Pseudomonas aeruginosa [33] = assay: Synergistic antibacterial activity against Pseudomonas aeruginosa 12-1 assessed as fractional inhibitory concentration index in CAMH broth medium supplemented with 0.41 to 0.51 mM Mg2+ in presence of aztreonam by checkerboard assay; format: functional
Pseudomonas aeruginosa [34] = assay: Synergistic antibacterial activity against Pseudomonas aeruginosa PAO1 assessed as fractional inhibitory concentration index in CAMH broth medium supplemented with 20.99 to 21.09 mM Mg2+ in presence of aztreonam by checkerboard assay; format: functional
Pseudomonas aeruginosa [35] = assay: Synergistic antibacterial activity against Pseudomonas aeruginosa 16-11 assessed as fractional inhibitory concentration index in CAMH broth medium supplemented with 20.99 to 21.09 mM Mg2+ in presence of aztreonam by checkerboard assay; format: functional
Pseudomonas aeruginosa [36] = assay: Synergistic antibacterial activity against Pseudomonas aeruginosa 12-1 assessed as fractional inhibitory concentration index in CAMH broth medium supplemented with 20.99 to 21.09 mM Mg2+ in presence of aztreonam by checkerboard assay; format: functional

Row | SMILES | MIC (Pseudomonas aeruginosa [1]) | CC50 at 24 h [2] | MIC (Pseudomonas aeruginosa [3]) | MIC (Pseudomonas aeruginosa [4]) | MIC (Pseudomonas aeruginosa [6]) | MIC (Pseudomonas aeruginosa [7]) | MIC (Pseudomonas aeruginosa [8]) | fractional inhibitory concentration index (FICI) (Pseudomonas aeruginosa [9]) | fractional inhibitory concentration index (FICI) (Pseudomonas aeruginosa [10]) | fractional inhibitory concentration index (FICI) (Pseudomonas aeruginosa [11]) | fractional inhibitory concentration index (FICI) (Pseudomonas aeruginosa [12]) | fractional inhibitory concentration index (FICI) (Pseudomonas aeruginosa [13]) | fractional inhibitory concentration index (FICI) (Pseudomonas aeruginosa [14]) | fractional inhibitory concentration index (FICI) (Pseudomonas aeruginosa [15]) | fractional inhibitory concentration index (FICI) (Pseudomonas aeruginosa [16]) | fractional inhibitory concentration index (FICI) (Pseudomonas aeruginosa [17]) | fractional inhibitory concentration index (FICI) (Pseudomonas aeruginosa [18]) | MIC (Pseudomonas aeruginosa [19]) | MIC (Pseudomonas aeruginosa [20]) | MIC (Pseudomonas aeruginosa [21]) | further results
1 | NCCC[C@H](NC(=O)C[C@@H](N)Cc1ccccc1)C(=O)Nc1ccc2ccccc2c1 | 512 µg/mL | > 100 µM | 2 µg/mL | > 512 µg/mL | > 512 µg/mL | > 512 µg/mL | 16 µg/mL | 0.5 | <0.5 | 0.375 | <0.5 | 0.375 | 0.313 | 0.375 | 0.313 | 0.5 | <0.375 | 512 µg/mL | 512 µg/mL | 512 µg/mL | MIC (Pseudomonas aeruginosa [5]): > 512 µg/mL; MIC (Pseudomonas aeruginosa [22]): 512 µg/mL; MIC (Pseudomonas aeruginosa [23]): 512 µg/mL; MIC (Pseudomonas aeruginosa [24]): 128 µg/mL; MIC (Pseudomonas aeruginosa [25]): 128 µg/mL; MIC (Pseudomonas aeruginosa [26]): 128 µg/mL; MIC (Pseudomonas aeruginosa [27]): 128 µg/mL; MIC (Pseudomonas aeruginosa [28]): 128 µg/mL; MIC (Pseudomonas aeruginosa [29]): 128 µg/mL; MIC (Pseudomonas aeruginosa [30]): 128 µg/mL; fractional inhibitory concentration index (FICI) (Pseudomonas aeruginosa [31]): 1.25; fractional inhibitory concentration index (FICI) (Pseudomonas aeruginosa [32]): 0.5; fractional inhibitory concentration index (FICI) (Pseudomonas aeruginosa [33]): 1.25; fractional inhibitory concentration index (FICI) (Pseudomonas aeruginosa [34]): 0.375; fractional inhibitory concentration index (FICI) (Pseudomonas aeruginosa [35]): 1.25; fractional inhibitory concentration index (FICI) (Pseudomonas aeruginosa [36]): 1.25
2 | N=C(N)NCCC[C@H](NC(=O)[C@@H](N)Cc1ccccc1)C(=O)Nc1ccc2ccccc2c1 [PABETAN] (H-Phe-Arg-βNA) | 512 µg/mL | > 100 µM | 2 µg/mL | 512 µg/mL (≈ 1150 µM) | 512 µg/mL (≈ 1150 µM) | 512 µg/mL (≈ 1150 µM) | 8 µg/mL | 0.5 | 0.5 | 0.375 | 0.5 | 0.375 | 0.313 | 0.375 | 0.313 | 0.5 | <0.375 | 512 µg/mL | 512 µg/mL | 512 µg/mL | MIC (Pseudomonas aeruginosa [5]; read-out: MIC): 512 µg/mL (≈ 1150 µM); MIC (Pseudomonas aeruginosa [22]): 512 µg/mL; MIC (Pseudomonas aeruginosa [23]): 512 µg/mL; MIC (Pseudomonas aeruginosa [24]): 128 µg/mL; MIC (Pseudomonas aeruginosa [25]): 128 µg/mL; MIC (Pseudomonas aeruginosa [26]): 128 µg/mL; MIC (Pseudomonas aeruginosa [27]): 128 µg/mL; MIC (Pseudomonas aeruginosa [28]): 128 µg/mL; MIC (Pseudomonas aeruginosa [29]): 128 µg/mL; MIC (Pseudomonas aeruginosa [30]): 128 µg/mL; fractional inhibitory concentration index (FICI) (Pseudomonas aeruginosa [31]): 1.25; fractional inhibitory concentration index (FICI) (Pseudomonas aeruginosa [32]): 0.5; fractional inhibitory concentration index (FICI) (Pseudomonas aeruginosa [33]): 1.25; fractional inhibitory concentration index (FICI) (Pseudomonas aeruginosa [34]): 0.5; fractional inhibitory concentration index (FICI) (Pseudomonas aeruginosa [35]): 1.25; fractional inhibitory concentration index (FICI) (Pseudomonas aeruginosa [36]): 1.25
